The experiment has as its system sphingomyelin in the cerebral cortex. The experiment is described as follows: Efficacy evaluation test using sphingomyelin accumulation model mouse (Niemann-Pick disease type A and type B model). Type of experiment: in vivo, mouse (C57BL/6J Jcl). The note with it: for Amount of sphingomyelin per wet weight of cerebral cortex: twice daily, 2 wk, imipramine hydrochloride 40 mg/kg i.p. once daily, 4 wk, male mouse, Mean ± S.D., N = 7-8. An excerpt:
Test Example 4 Efficacy Evaluation Test Using Sphingomyelin Accumulation Model Mouse as Niemann-Pick Disease Type A and Type B Model
A phase 1b clinical trial on Niemann-Pick disease type B which develops by abnormality in acid sphingomyelinase has reported that the administration of recombinant acid sphingomyelinase (olipudase alfa) decreased sphingomyelin accumulated in a peripheral organ such as the liver, and this led to the amelioration of the pathological condition (Am J Surg Pathol. 2016; 40: 1232).
Also, the intraperitoneal administration of an acid sphingomyelinase inhibitor, imipramine hydrochloride, to a mouse increases its enzyme substrate, sphingomyelin, not only in a peripheral organ such as the liver but in the central nervous system such as the cerebrum, and the mouse obtained by such administration is recognized as an animal model that can induce sphingomyelin accumulation, as in human Niemann-Pick disease type A and type B, in each tissue (Gen Physiol Biophys 2016; 35: 195).
Accordingly, the compound of the present invention was evaluated as a SPT inhibitor for its sphingomyelin-lowering effect on Niemann-Pick disease type B, and Niemann-Pick disease type A, which also accumulates sphingomyelin in the central nervous system such as the cerebral cortex, by the following method. Imipramine hydrochloride (Wako Pure Chemical Industries, Ltd.) was dissolved at a concentration of 2 mg/mL in saline and intraperitoneally administered at a dose of 40 mg/kg to each 6-week-old male C57BL/6J Jcl mouse (CLEA Japan, Inc.) for 2 weeks once daily. […] In this operation, the intraperitoneal administration of imipramine hydrochloride was also carried out once daily concurrently therewith. After the completion of the administration of the SPT inhibitor, the cerebrum was excised from the mouse cranium and separated into the cortex and the medulla. The cortical portion was rapidly frozen in liquid nitrogen and then disrupted using ShakeMaster Auto (Bio-Medical Science Co., Ltd.) under freezing. 2-Propanol (containing 0.002% of BHT (dibutylhydroxytoluene as a fat and oil antioxidant) was added thereto in an amount of 9 mL/g of wet weight, and lipids in the cerebral cortex were extracted by suspension using ShakeMaster Auto again. The concentration of sphingomyelin contained in the 2-propanol was measured using a sphingomyelin assay kit (Abcam, Inc., ab138877) based on the fluorescence quantification method. EnVision 2102 Multilabel Reader (PerkinElmer Inc.) was used in fluorescence measurement.
From this, it was able to be confirmed that a model mimicking Niemann-Pick disease type A and type B which accumulate sphingomyelin in the cerebral cortex was established by the intraperitoneal administration of imipramine hydrochloride for 4 weeks.

Molecules are shown by their SMILES.

On to `Cn1nc(C(=O)N[C@@H]2CCN(C(=O)c3cc(Cl)c4nccnc4c3)C[C@@H]2c2ccc(F)cc2)cc1C(F)(F)F` [Example 1, N-((3S,4R)-1-((8-Chloroquinoxalin-6-yl)carbonyl)-3-(4-fluorophenyl)piperidin-4-yl)-1-methyl-5-(trifluoromethyl)-1H-pyrazole-3-carboxamide], for which the “Amount of sphingomyelin per wet weight of cerebral cortex” value runs as follows: (group 3: 0.3 mg/kg oral) 3.282 ± 0.260 µg/g; (group 4: 1.0 mg/kg oral) 2.972 ± 0.635 µg/g; (group 5: 3.0 mg/kg oral) 2.952 ± 0.219 µg/g. Further, the “effect of suppressing sphingomyelin accumulation in the cerebral cortex” value (oral, 2 weeks twice daily, single dose 0.3, 1.0 and 3.0 mg/kg, imipramine model mouse, p<0.025, one-tailed Williams' test) is recorded as “dose-dependent significant effect of suppressing sphingomyelin accumulation in the cerebral cortex”.
